The values that follow come from patent US20090004101A1, “Method and Means for Enhanced Pulmonary Drug Delivery” (UNIVERSITY COLLEGE CARDIFF CONSULTANTS LIMITED, priority 2004, published 2009).

The nature of data set [1]: Pulmonary absorption of human insulin co-administered intratracheally with P2Y receptor agonists to anesthetized rabbits (plasma insulin by radioimmunoassay). In kind it is in vivo, New Zealand white rabbits. The following applies: for Effect of the P2Y agonist on t1/2, Cmax and F of insulin administered to the lungs: co-administered with insulin to rabbit lungs, summary in words; for Cmax of insulin / F (bioavailable fraction) of insulin / t1/2 of insulin: rabbit, mean±SD, n=4. As for the experimental part: Briefly, New Zealand white rabbits were anesthetized with Hypnovel (Roche, Welwyn Garden City, UK), 0.3 mg/kg i.v. via cannula in the ear, and Hypnorrn (Janssen Animal Health, Grove, Oxford, UK), 0.1 mg/kg via intramuscular injection. Once intubated with a polyethylene endotracheal tube (i.d. 4 mm, o.d. 5 mm; Portex, UK) coated with a layer of xylocalne gel (Astra Pharmaceuticals, Kings Langley, UK), a second, smaller polyethylene dosing tube was inserted inside the endotracheal tube to the point of the bifurcation of the trachea.

For data set [2] the following is noted: EDTA co-administered; cited from earlier work.
The mark [3] stands for this setting: insulin 10 U/kg intratracheal with Up4U 0.2 mg (2.0 mg/mL).
[4] abbreviates: insulin 10 U/kg intratracheal with Up4U 0.62 mg (6.2 mg/mL).

Turning to `O=c1ccn([C@@H]2O[C@H](COP(=O)(O)OP(=O)(O)OP(=O)(O)O)[C@@H](O)[C@H]2O)c(=O)[nH]1` [UTP, uridine 5′-triphosphate], the “Effect of the P2Y agonist on t1/2, Cmax and F of insulin administered to the lungs” value in data set [1] is “increase the half life (t1/2), maximal plasma concentration (Cmax) and the overall bioavailable fraction (F) of insulin”. For the same compound, the Cmax of insulin was 828 ± 42.4 μU/mL in data set [1] (insulin 10 U/kg intratracheal with UTP 0.34 mg (3.4 mg/mL)) and 1515 ± 297 μU/mL in data set [1] (insulin 10 U/kg intratracheal with UTP 1.5 mg (15 mg/mL)).

Regarding `O=C(O)CN(CCN(CC(=O)O)CC(=O)O)CC(=O)O` [EDTA], the “Effect on uptake of calcitonin following intratracheal administration to the lungs” value in data set [2] was “did increase”.

In the case of `O=c1ccn([C@@H]2O[C@H](COP(=O)(O)OP(=O)(O)OP(=O)(O)OP(=O)(O)OC[C@H]3O[C@@H](n4ccc(=O)[nH]c4=O)[C@H](O)[C@@H]3O)[C@@H](O)[C@H]2O)c(=O)[nH]1` [Up4U, P^1,P^4-di(uridine 5′-)tetraphosphate], the “Effect of the P2Y agonist on t1/2, Cmax and F of insulin administered to the lungs” value in data set [1] was “increase the half life (t1/2), maximal plasma concentration (Cmax) and the overall bioavailable fraction (F) of insulin”. For the same compound, in data set [1] (setting [3]), the Cmax of insulin stood at 531 ± 89.5 μU/mL, the “F (bioavailable fraction) of insulin” value is 8.07 ± 3.40% and the t1/2 of insulin stood at 79.6 ± 42.61 min. Besides, in data set [1] (setting [4]), the Cmax of insulin is 655 ± 46.17 μU/mL, the “F (bioavailable fraction) of insulin” value is recorded as 5.47 ± 1.03% and the t1/2 of insulin is given as 47.9 ± 2.23 min.
